According to patent US11331370B2, “Combination product for the prevention of sexually transmitted infections” (priority 2014, dated 2022):

What was measured:
HIV-192BR014 = test: Anti-HIV combination activity in activated PBMCs, p24 ELISA, Chou-Talalay; format: cell-based; settings: PBMC, HIV-1 92BR014, p24 day 7; combination value refers to the API in bold font (GRFT); read-out: Dm, median-effect dose (IC50)
Description: Briefly, in order to test anti-HIV activity, activated PBMCs were treated with varying equipotent doses (based on IC50 of each API) of GRFT, ZA or GRFT+ZA at 37° C. 1 h prior to exposure to 100 TCID50 of HIV-192BR014 in the presence of the same doses of each compound or combination (triplicates). Medium-treated (virus only) cells were included as a control. Eighteen hours later the cells were washed and plated in the presence of medium with IL-2 (with the only exception of those samples treated with ZA, where ZA was replaced). This step was repeated on day 4 and the supernatants collected on day 7 to measured HIV-1 p24 levels by ELISA. […] Combination indexes (CI) were estimated using the Chou-Talalay method (Chou, T. C. Pharmacological Reviews, 2006, 58(3): p. 621-81) with the Cacusyn for Windows software (Biosoft, Cambridge, United Kingdom). As provided therein, “CI” refers to a quantitative measure of the degree of drug interaction as follows: additive effect (CI=1); synergism (CI <1), or antagonism (CI >1). “Dm” refers to the median-effect dose (IC50); “m” refers to a measurement of the sigmoidicity of the dose-effect curve, and also represents the slope of the median-effect plot; and “r” refers to the linear correlation coefficient of the median-effect plot. […]

HSV-2 G strain [1] = test: Dye-uptake PrestoBlue antiviral assay in Vero cells; format: cell-based; settings: 6 day incubation, combination value based on API with bold font
Description: We previously reported that the combination of ZA and CG results in a potent antiviral synergy against HSV-2. Fernandez-Romero, J. A., et al., Antimicrobial agents and chemotherapy, 2012. 56(1): p. 358-68. […] Briefly, HSV-2 G strain and different concentrations of each compound or their combinations (based on equipotency IC50 ratios) were pre-incubated at 37° C. and added to Vero cells followed by a 6 day incubation at 37° C., 5% CO2 and 98% humidity. A dye-uptake PrestoBlue assay was performed to test antiviral activity. Relative fluorescent units (RFU) were measured at 570 nm for excitation and 600 nm for emission. The % of virus replication was calculated using the following formula: % Virus replication=[(O.Dcell control−O.Dcompound)/(O.Dcell control−O.Dvirus control)]*100. IC50 values were calculated using a dose-response-inhibition analysis on GraphPad Prism v 5.0 software. As provided therein, ¶ IC50 or % IC50 reduction values are based on API with bold font; NA=Not applicable.

HIV-1 = settings: p24 ELISA and RT; cited from earlier work
HIV-1ADA-M (R5 virus) = test: MAGI assay in TZM-bl cells, anti-HIV activity; format: cell-based; settings: 72 h, FIG. 1A
Description: (§1) FIG. 1 includes logarithmic plots which show the percentage of virus replication in the presence of GRFT (nM). Data in FIG. 1 A and FIG. 1 B confirm that GRFT has potent activity against HIV. […] In FIG. 1A, anti-HIV activity was tested in TZM-bl cells using the MAGI assay (R Begay O, et al. AIDS Research and Human Retroviruses, 2011 Sep. 1; 27(9):1019-24) and the laboratory strains HIV-1MN (X4 virus) and HIV-1ADA-M ([…]). In FIG. 1B, anti-HIV activity was tested in PBMC (Trkola A, et al., J Virol. 1999 November; 73(11):8966-74) using the laboratory strains HIV-1NL4-3. In FIG. 1C, anti-HPV activity was evaluated in HeLa cells using a luciferase reporter gene assay (Buck C B, et al. PLoS Pathog. 2006 Jul. 1; 2(7):e69) and testing the antiviral activity against three different HPV PsV types (16, 18 and 45). In FIGS. 1A, 1B, 1C, IC50 values are depicted as a vertical dotted line with the 95% confidence interval and were calculated using a dose-response-inhibition analysis on GraphPad Prism v 5.0 software. All the non-toxic GRFT concentrations were tested in triplicates and are shown with the mean±SD.
(§2) The activity of GRFT against HIV was verified in standard in vitro assays. […]

HIV-1MN (X4 virus) = test: MAGI assay in TZM-bl cells, anti-HIV activity; format: cell-based; settings: 72 h, FIG. 1A
Description: as §1, §2

HIV-1NL4-3 = test: Anti-HIV activity in PBMC, p24 ELISA; format: cell-based; settings: activated PBMC, p24 ELISA day 7, FIG. 1B
Description: as §1
Anti-HIV activity was also tested in peripheral blood mononucleated cells (PBMC) using the laboratory strains HIV-1NL4-3 according to conventional methods. See Trkola A, et al., J Virol. 1999 November; 73(11):8966-74. […]

HPV16 PsV = test: HPV pseudovirus luciferase assay in HeLa cells; format: cell-based
Description: The activity of GRFT against HPV pseudoviruses was also investigated. […] All the non-toxic GRFT concentrations were tested in triplicates. The graphics show the mean±SD.
Medium-treated (virus only) cells were included as a control. […] In order to assay for anti-HPV activity, HeLa cells were treated with varying equipotent doses of GRFT, C or GRFT+C (based on IC50 of each API) at 37° C. and immediately exposed to HPV16 PsV (triplicates). Medium-treated (virus only) cells were included as a control. The luciferase assay was performed 72 h after infection. […] As provided therein, “CI” refers to a quantitative measure of the degree of drug interaction as follows: additive effect (CI=1); synergism (CI <1), or antagonism (CI >1). […]

HPV18 PsV = test: HPV pseudovirus luciferase assay in HeLa cells; format: cell-based; settings: 72 h, FIG. 1C
Description: as §1
(§3) The activity of GRFT against HPV pseudoviruses was also investigated. […]

HPV45 PsV = test: HPV pseudovirus luciferase assay in HeLa cells; format: cell-based; settings: 72 h, FIG. 1C
Description: as §1, §3

HSV-2 G strain [2] = test: Plaque inhibition assay in Vero cells, inhibition of virus adsorption; format: cell-based; settings: 4° C., plaque forming units, FIG. 2A
HSV-2 G strain [3] = test: Plaque inhibition assay in Vero cells, inhibition of virus entry; format: cell-based; settings: 4° C. then 37° C. 2 h, citric acid buffer, FIG. 2B

CC(=O)[O-].CC(=O)[O-].[Zn+2] [ZA, zinc acetate]
IC50 (HIV-192BR014): 48.3 µM
IC50 (95% confidence interval) (HSV-2 G strain [1]): 58.2 µg/mL

CC(=O)[O-].CC(=O)[O-].[Cd+2] [cadmium acetate]
HIV-1 production (HIV-1): inhibited HIV-1 production

[Cl][Hg][Cl] [mercury chloride]
HIV-1 production (HIV-1): inhibited HIV-1 production

[Cl-].[Cl-].[Zn+2] [zinc chloride]
HIV-1 production (HIV-1): inhibited HIV-1 production

Griffithsin [GRFT]
anti-HIV activity in vitro (HIV-1ADA-M (R5 virus)): potent anti-HIV activity
anti-HIV activity in vitro (HIV-1MN (X4 virus)): potent anti-HIV activity
anti-HIV activity in vitro (HIV-1NL4-3): potent anti-HIV activity
in vitro activity against HPV16 PsV (HPV16 PsV; HeLa cells, luciferase assay, 72 h, FIG. 1C): moderate in vitro activity
IC50 (HPV16 PsV; HeLa, HPV16 PsV, luciferase 72 h, combination value refers to the API in bold font, read-out: Dm, median-effect dose (IC50)): 32.7 µM
in vitro activity against HPV18 PsV (HPV18 PsV): moderate in vitro activity
in vitro activity against HPV45 PsV (HPV45 PsV): moderate in vitro activity
IC50 (HIV-192BR014): 0.0004 µM
inhibition of virus adsorption (HSV-2 G strain [2]): does not prevent viral adsorption
inhibition of virus entry (HSV-2 G strain [3]): prevents HSV-2 entry
IC50 (95% confidence interval) (HSV-2 G strain [1]): 19 µg/mL
